Assay results: patent US20110054247A1, “METHODS FOR CLONING FERRETS AND TRANSGENIC FERRET MODELS FOR DISEASES” (UNIVERSITY OF IOWA RESEARCH FOUNDATION, priority 2009, published 2011)

Key:
CFTR-/- kits = experiment: Oral UDCA therapy of CFTR-/- kits (neonatal clinical care, blood chemistries); format: in vivo, ferret; settings: Golytely and antibiotics
Procedure: Neonatal clinical care of CFTR^−/− kits. Two treatment protocols were developed to enhance post-natal survival and reduce the risk of intestinal obstruction caused by MI. Both protocols included administering metronidazole (5 mg/kg in 100 uL of dextrose saline, s.c.) 4× daily beginning at the time of birth, and starving the animals for the first 3 hours after birth and then administering a 150-200 μL Golytely® gavage (Braintree Laboratories Inc.) using a fire polished microloader pipette tip (Eppendorf Inc.) (FIG. 27 for example of gavage tube components). The gavage was repeated every 6 hours up to three times, until meconium was passed. […] When CFTR^−/− kits were weaned at 5 weeks of age, they were fed a slurry of Elecare hydrated solid chow (Marshall Farms) 2× daily, mixed with 1 lipase Unit per 10 gram body weight of Viokase-V (the amount of food eaten with each feeding was recorded for these calculations).
Blood chemistries. […] Mammalian Liver Profile rotors from Abaxis were used, and assessed plasma levels of: alkaline phosphatase (AP), alanine aminotransferase (ALT), bile acids (BA), total bilirubin (TBiI), total cholesterol (CHOL), gamma glutamyl transferase (GGT), and blood urea nitrogen (BUN). […]
For these reasons, it was determined whether oral UDCA therapy of CFTR^−/− kits might normalize liver function and improve nutrition. […]

[1] = test system: submucosal glands of CFTR-/- tracheas; experiment: Functional measurement of gland secretions in tracheal xenografts; parameters: species or system ferret; settings: 30 minute stimulation
Procedure: Functional measurement of gland secretions in tracheal xenografts. Rates of mucous secretion from single submucosal glands were determined on excised CFTR^+/+, CFTR^+/−, and CFTR^−/− tracheal xenografts, as previously described in Joo et al. (2001), with modification to optimize xenograft viability. Xenografts were harvested and placed in minimal essential medium (MEM) with antibiotics, and shipped overnight at 4° C. from the University of Iowa to Stanford University. Tracheal xenografts were open along the posterior trachealis muscle, and dissected tracheal segments were mounted mucosal-side-up in a chamber without removing the cartilage at 4° C. […] Digital images of the spherical mucous bubbles under mineral oil were obtained at 5 minute intervals, based on which the secretory rates for individual glands was calculated using ImageJ software (NIH, MD). […] To confirm that differences in glandular secretory rates between CF and non-CF xenografts were not due to differences in gland size, we performed morphometric analysis on the samples analyzed. […] The unit length of the surface airway basal lamina and the glandular area were measured for each section using Metamorph software. […] On average about 75 photomicrographs were evaluated for each xenograft sample (N=5 for non-CF and N=6 for CF).

C[C@H](CCC(=O)O)[C@H]1CC[C@H]2[C@@H]3[C@@H](O)C[C@@H]4C[C@H](O)CC[C@]4(C)[C@H]3CC[C@]12C [UDCA, ursodeoxycholic acid]
survival of CFTR-/- kits that did not die of MI (CFTR-/- kits; 4 of 20 CFTR-/- kits treated with UDCA): 5 to 9 days
number of kits that died of MI (CFTR-/- kits; among 20 CFTR-/- kits treated with UDCA): 16

C[N+](C)(C)CCOC(N)=O [carbachol]
reduction of fluid secretion from submucosal glands, CFTR-/- versus non-CF tracheas ([1]; secretion in response to 1 μM carbachol): reduced by half

C=C[C@@]1(C)CC(=O)[C@]2(O)[C@@]3(C)[C@@H](O)CCC(C)(C)[C@@H]3[C@H](O)[C@H](OC(C)=O)[C@@]2(C)O1 [forskolin]
reduction of fluid secretion from submucosal glands, CFTR-/- versus non-CF tracheas ([1]; secretion in response to 3 μM forskolin): 7.4 fold
